Results reported in patent publication US20210379066A1, “COMBINATIONS OF POSITIVE ALLOSTERIC MODULATORS AND NICOTINIC ACETYLCHOLINE RECEPTOR AGONISTS FOR TREATING OCULAR CONDITIONS” (Oyster Point Pharma, Inc., priority 2018, published 2021).
Entries after “also recorded” stand apart in the source; their conditions may differ.

How the values were obtained:
[1] = biological target: T1, human alpha4beta2 nAChRs (Homo sapiens, UniProt P17787+P43681); assay: Positive allosteric modulation of agonist-evoked currents, two-electrode voltage clamp in Xenopus oocytes (Example 1); assay type: cell-based
T1 construct: expressed in transfected cells; host or cells: Xenopus laevis oocytes (cDNA injection)
Description: • Acetylcholine chloride • 100 mM stock solution in bi-distilled water 1.3 Test system • Apparatus: Automated Injection and Recording Apparatus, HiQScreen • Species of donor animals: Xenopus • Strain of animals: Laevis • Origin (supplier) of animals: HiQScreen Sàrl, Geneva • Body Weight of animals: 150 g to 300 g • Animal maintenance 3 to 5 per vivarium • Room temperature: 20-22° C. • Lighting times: Vivarium were exposed to daylight with additional artificial lighting (6 am-8 pm in summer; 8 am-7 pm in winter). • Food: Food pellets, ad libitum • Source of biological material • and isolation procedure: Abdominal incision to remove ovaries • Experimental conditions in Oocyte incubation: Barth solution containing in mM NaCl 88, • vitro: […] OR2 medium containing in mM: […] Two-electrode voltage clamp, using proprietary automated system equipped with a Geneclamp amplifier (Axon Instrument, Foster City, Calif., USA), or HiClamp (Multichannel Systems, Germany) Abbreviations: Ach, Acetylcholine; nAChR, Nicotinic acetylcholine receptor; SEM, Standard error of the mean; PAM, Positive allosteric modulator All experiments were carried out at human nAChRs expressed in Xenopus oocytes using the method of cDNA expression. Xenopus oocytes were prepared and injected using standard procedures. Briefly, ovaries were harvested from Xenopus Laevis females that have been deeply anesthetized by cooling at 4° C. and Tricaine methanesulfonate (MS-222 at a concentration of 150 mg/L) in sodium bicarbonate (300 mg/L). Once anesthetized the animal was decapitated and pithed following the rules of animal rights from the Geneva canton. […] All recordings were performed at 18° C. and cells superfused with OR2 medium containing in mM: […] Currents evoked by ACh or other agonists were recorded using an automated process equipped with standard two-electrode voltage-clamp configuration (TEVC). Data were captured and analyzed using a HiQScreen proprietary data acquisition and analysis software running under Matlab (Mathworks Inc.). […] Compounds were dissolved in OR2 as stock solution (1 mM) and the final dilution to the desired concentration was made on the day of the experiment. Injections of cDNAs encoding for the human alpha4beta2, were performed in at least 95 oocytes were performed using a proprietary automated injection device (Hogg et al., J. Neurosci. Methods, 2008) and receptor expression examined at least two days later. Oocytes were poked with two electrodes and their membrane potential maintained, unless indicated, at −80 mV throughout the experiment. A protocol to determine the allosteric modulation at the alpha4beta2 nAChRs in the oocytes expressing the receptor was developed. Oocytes expressing alpha4beta2 nAChRs were exposed to increasing concentrations of ACh while the response was evaluated. This was repeated with the addition of a fixed concentration of the allosteric modulator. The current evoked from the exposure to the agonist with the modulator was recorded and compared to currents evoked in the absence of the modulator. To assess the effects of positive allosteric modulators (Br-PBTC and NS-9283) a protocol of determination of the concentration activation curve in absence and presence of the PAM was designed. […] To assess the positive allosteric modulator effects of NS-9283 at the compound 1 hemi-galactarate dihydrate the same experimental protocol was conducted using 1 μM of the modulator. […] To further evaluate the PAM effects, the modulation was measured either as a first application and compared versus the subsequent agonist evoked response or, vice versa, by first exposing the cell to the agonist alone and then to the PAM and the agonist applied during a sustained PAM exposure. […] The same experiment was then conducted for compound 1 hemi-galactarate dihydrate as the agonist and Br-PBTC as the modulator or NS-9283 as the modulator.

[2] = biological target: T1, human alpha4beta2 nAChRs; assay: Desensitization by sustained (1 hour) agonist exposure and recovery, without and with PAM, Xenopus oocytes (Example 1); assay type: cell-based
[3] = presence vs absence of 1 μM PAM

T1 sequence (P43681 29-627 limits assumed): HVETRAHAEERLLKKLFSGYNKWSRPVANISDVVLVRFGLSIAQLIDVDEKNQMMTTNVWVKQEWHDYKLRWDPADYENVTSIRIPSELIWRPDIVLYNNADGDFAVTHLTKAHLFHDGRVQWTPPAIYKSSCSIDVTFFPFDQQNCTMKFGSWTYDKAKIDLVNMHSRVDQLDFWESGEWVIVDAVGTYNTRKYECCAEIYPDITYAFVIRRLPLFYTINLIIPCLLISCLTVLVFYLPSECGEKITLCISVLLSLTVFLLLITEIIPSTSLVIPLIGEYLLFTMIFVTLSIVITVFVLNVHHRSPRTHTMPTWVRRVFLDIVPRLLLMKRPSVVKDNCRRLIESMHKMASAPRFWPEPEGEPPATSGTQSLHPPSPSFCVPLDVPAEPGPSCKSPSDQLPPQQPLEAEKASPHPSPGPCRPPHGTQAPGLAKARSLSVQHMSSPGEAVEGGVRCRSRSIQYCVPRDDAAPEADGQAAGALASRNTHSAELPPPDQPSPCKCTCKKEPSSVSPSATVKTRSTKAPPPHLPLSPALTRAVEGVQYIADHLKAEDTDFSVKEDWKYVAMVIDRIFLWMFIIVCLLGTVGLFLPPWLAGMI
T1 sequence (P17787 26-502): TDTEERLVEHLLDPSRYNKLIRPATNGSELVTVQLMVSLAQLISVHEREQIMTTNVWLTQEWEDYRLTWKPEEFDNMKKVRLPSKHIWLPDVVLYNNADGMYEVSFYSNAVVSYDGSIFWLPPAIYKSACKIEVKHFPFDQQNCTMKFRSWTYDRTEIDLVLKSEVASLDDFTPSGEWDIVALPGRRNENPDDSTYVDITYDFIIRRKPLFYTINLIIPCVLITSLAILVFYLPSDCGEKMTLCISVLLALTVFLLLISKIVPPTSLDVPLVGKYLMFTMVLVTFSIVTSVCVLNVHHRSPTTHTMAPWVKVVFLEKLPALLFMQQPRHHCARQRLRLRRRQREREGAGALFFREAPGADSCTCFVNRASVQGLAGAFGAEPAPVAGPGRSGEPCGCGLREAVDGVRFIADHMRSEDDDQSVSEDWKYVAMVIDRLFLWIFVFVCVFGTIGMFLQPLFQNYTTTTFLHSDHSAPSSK

dependence of potentiation on the order of agonist and PAM application ([1]; agonist compound 1 hemi-galactarate dihydrate): independent on the exposure protocol
Structure (SMILES): O=C(N[C@@H]1CCCNC1)c1cc2cccc(Br)c2s1 [Br-PBTC, (R)-7-bromo-N-(piperidin-3-yl)benzo[b]thiophene-2-carboxamide]
positive allosteric modulator activity in the presence of compound 1 hemi-galactarate dihydrate ([1]; 1 μM PAM): acts as a positive modulator; also recorded: potentiate the agonistic activity | maximal current evoked by compound 1 hemi-galactarate dihydrate [1, 3]: increase of the maximal evoked current; also recorded: increase of the amplitude of the current | shift of the concentration activation curve to compound 1 hemi-galactarate dihydrate [1, 3]: significant shift to the left; also recorded: shifted to the left | effect of PAM on recovery from varenicline tartrate desensitization ([2]; 300 μM varenicline tartrate 1 hour, 1 μM PAM, wash of 3 hours): almost complete recovery within 3 hours; also recorded: almost full recovery; also recorded: partially reversed | effect of PAM on amplitude of the current evoked by varenicline tartrate ([2]; 300 μM varenicline tartrate, 1 μM PAM): largely enhanced | effect of PAM on profile of compound 1 hemi-galactarate dihydrate desensitization and recovery ([2]; 1 mM agonist, co-application of 1 μM modulator): minimal effect
